These results are taken from patent US10906876B2, “Tetrahydroisoquinolines as selective NADPH oxidase 2 inhibitors” (University of Pittsburgh—Of the Commonwealth System of …, priority 2013, dated 2021).

The target in test [1] is T1, Nox2 (Homo sapiens, UniProt P04839).
T1 construct: expressed in transfected cells
T1 sequence (P04839 2-570 limits assumed): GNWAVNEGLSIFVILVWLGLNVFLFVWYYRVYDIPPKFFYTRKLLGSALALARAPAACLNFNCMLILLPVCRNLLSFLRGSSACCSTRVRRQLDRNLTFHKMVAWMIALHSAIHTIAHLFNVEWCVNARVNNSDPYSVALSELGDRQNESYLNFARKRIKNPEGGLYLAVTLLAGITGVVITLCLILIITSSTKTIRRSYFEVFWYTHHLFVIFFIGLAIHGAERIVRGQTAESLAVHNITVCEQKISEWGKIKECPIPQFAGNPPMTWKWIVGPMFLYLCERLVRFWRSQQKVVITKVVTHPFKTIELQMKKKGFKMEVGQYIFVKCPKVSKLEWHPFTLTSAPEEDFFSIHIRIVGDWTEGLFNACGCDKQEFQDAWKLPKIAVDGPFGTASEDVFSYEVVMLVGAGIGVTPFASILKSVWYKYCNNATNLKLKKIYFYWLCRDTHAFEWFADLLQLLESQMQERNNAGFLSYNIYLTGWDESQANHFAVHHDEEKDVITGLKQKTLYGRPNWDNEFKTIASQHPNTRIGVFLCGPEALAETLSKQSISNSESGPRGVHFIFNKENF
The test can be described thus: ROS (H2O2) generation in whole COS-Nox2 cells, Amplex Red assay. The class given is cell-based. An excerpt: (§1) All cell culture reagents were obtained from Invitrogen, unless indicated. COS-22 (COS-7 cells stably expressing human p22^phox) and COS-Nox2 (a.k.a. COS-phox) cells (COS-7 cells stably expressing human p22^phox, Nox2, p47^phox and p67^phox) were kindly provided by Dr. Mary C. Dinauer (Indiana University, School of Medicine) (Price et al., Blood, 2002, 99:2653-2661). COS-22 cells were maintained in Dulbecco's Modified Eagle Medium (DMEM) with 4.5 g/L glucose, L-glutamine and sodium pyruvate containing 10% heat-inactivated fetal bovine serum (FBS), 100 units/ml penicillin and 100 μg/ml streptomycin (complete media) supplemented with 1.8 mg/ml G418 (Calbiochem/EMB Bioscience, Gibbstown, N.J.). COS-Nox2 cells were maintained in complete media supplemented with 1.8 mg/mL G418, 1 μg/mL puromycin (Sigma, St Louis, Mo.) and 0.2 mg/mL hygromycin B (Invitrogen, Carlsbad, Calif.). HEK-Nox5 cells were kindly provided by Dr. David Fulton (Georgia Health Sciences University) and maintained in complete media.
H2O2 production was quantified in intact COS-Nox4 cells by Amplex® Red. Briefly, COS-Nox4 cells (5×10^4 cells/ml) were re-plated into 384-well plate in assay buffer (25 mM Hepes, pH 7.4, containing 0.12 M NaCl, 3 mM KCl, 1 mM MgCl2). The cells were incubated in the presence or absence of drugs at 37° C. in assay buffer supplemented with 0.1 mM Amplex® Red, and 0.32 U/ml of horse radish peroxidase (HRP) for 15 min. Fluorescence measurements were made using a Biotek Synergy 4 Hybrid Multi-Mode Microplate Reader with a 530/25-excitation and a 590/35-emission filter. The reaction was monitored at 37° C. for 1 h. A standard curve of known H2O2 concentrations was included on each plate. Nox4 activity was obtained by calculating the rate of H2O2 production as RFU/min and then subtracting the equivalent value given by non-transfected COS-22 cells. Similarly, H2O2 production by Nox2 cells was also measured by Amplex® Red as described above but in the presence of 150 U/mL of SOD and the reaction was initiated by addition of 5 μM PMA. The rate of H2O2 production in this case was calculated as RFU/min after the subtraction of the equivalent value given by non-stimulated cells. Data are expressed as % of vehicle control.
(§2) All data are expressed as means±SEM. IC50 values were determined using the GraphPad Prism software (GraphPad Software, San Diego, Calif.) for non-linear regression three-parameters, with constrain values of 100 and 0 for top and bottom, respectively, and assumes a Hill slope of 1.

Test [2] addresses T1, Nox2. The test can be described thus: ROS (superoxide) generation in whole COS-Nox2 cells, L-012 chemiluminescence. To be noted: whole COS-Nox2 cells stimulated with 5 μM PMA. The class given is cell-based.
Description: as §1
COS-Nox2, COS-Nox1/NOXO1/NOXA1, HEK-Nox5 and COS-22 cells were re-plated in OPTIMEM into 384-well white micro-plates (Greiner-Bio One GmbH, Germany) at a density of 2.5×10^3 cells/well for COS-Nox2 and 5×10^4 cells/well for all others. The cells were incubated at 37° C. in PBS containing […] L-012 for 10 min. Reaction was initiated by addition of 5 μM PMA in the case of Nox2 or 1 μM PMA/0.1 μM Ionomycin in the case of Nox5. Since Nox1 was constitutively active, Nox1-derived O2^•− was assessed by comparison to non-transfected cells (Cos22). Luminescence was quantified over time using a Biotek Synergy 4 Hybrid Multi-Mode Microplate Reader. The specificity of L-012 for O2^•− was confirmed by the addition of SOD (150 U/mL).
as §2
Heterologous Nox1, 2, 4, and 5 cell systems were used as a testing paradigm to identify a probe molecule that inhibits Nox2 selectively over Nox1, 4, and 5. An acceptable probe would also show a lack of activity against XO, which also produces ROS. The latter screen would serve two purposes: (1) to eliminate drugs that inhibit an oxidase of distinct composition; and (2) to preclude agents that directly scavenge ROS. A cell-based primary assay using stable Nox2-transfected COS cells (Price et al., Blood 2002, 99:2653-2661) with L-012 chemiluminescence (Daiber et al., Free Radic. Biol. Med. 2004, 36:101-111) was used as a detection system for O2^•−-generation.

The target in test [3] is T2, Bovine milk XO (Bos taurus, UniProt P80457).
T2 construct: Bovine milk XO (grade 1, ammonium sulfate suspension; Sigma-Aldrich); purchased Sigma-Aldrich; host or cells: bovine milk
T2 sequence (P80457 whole entry): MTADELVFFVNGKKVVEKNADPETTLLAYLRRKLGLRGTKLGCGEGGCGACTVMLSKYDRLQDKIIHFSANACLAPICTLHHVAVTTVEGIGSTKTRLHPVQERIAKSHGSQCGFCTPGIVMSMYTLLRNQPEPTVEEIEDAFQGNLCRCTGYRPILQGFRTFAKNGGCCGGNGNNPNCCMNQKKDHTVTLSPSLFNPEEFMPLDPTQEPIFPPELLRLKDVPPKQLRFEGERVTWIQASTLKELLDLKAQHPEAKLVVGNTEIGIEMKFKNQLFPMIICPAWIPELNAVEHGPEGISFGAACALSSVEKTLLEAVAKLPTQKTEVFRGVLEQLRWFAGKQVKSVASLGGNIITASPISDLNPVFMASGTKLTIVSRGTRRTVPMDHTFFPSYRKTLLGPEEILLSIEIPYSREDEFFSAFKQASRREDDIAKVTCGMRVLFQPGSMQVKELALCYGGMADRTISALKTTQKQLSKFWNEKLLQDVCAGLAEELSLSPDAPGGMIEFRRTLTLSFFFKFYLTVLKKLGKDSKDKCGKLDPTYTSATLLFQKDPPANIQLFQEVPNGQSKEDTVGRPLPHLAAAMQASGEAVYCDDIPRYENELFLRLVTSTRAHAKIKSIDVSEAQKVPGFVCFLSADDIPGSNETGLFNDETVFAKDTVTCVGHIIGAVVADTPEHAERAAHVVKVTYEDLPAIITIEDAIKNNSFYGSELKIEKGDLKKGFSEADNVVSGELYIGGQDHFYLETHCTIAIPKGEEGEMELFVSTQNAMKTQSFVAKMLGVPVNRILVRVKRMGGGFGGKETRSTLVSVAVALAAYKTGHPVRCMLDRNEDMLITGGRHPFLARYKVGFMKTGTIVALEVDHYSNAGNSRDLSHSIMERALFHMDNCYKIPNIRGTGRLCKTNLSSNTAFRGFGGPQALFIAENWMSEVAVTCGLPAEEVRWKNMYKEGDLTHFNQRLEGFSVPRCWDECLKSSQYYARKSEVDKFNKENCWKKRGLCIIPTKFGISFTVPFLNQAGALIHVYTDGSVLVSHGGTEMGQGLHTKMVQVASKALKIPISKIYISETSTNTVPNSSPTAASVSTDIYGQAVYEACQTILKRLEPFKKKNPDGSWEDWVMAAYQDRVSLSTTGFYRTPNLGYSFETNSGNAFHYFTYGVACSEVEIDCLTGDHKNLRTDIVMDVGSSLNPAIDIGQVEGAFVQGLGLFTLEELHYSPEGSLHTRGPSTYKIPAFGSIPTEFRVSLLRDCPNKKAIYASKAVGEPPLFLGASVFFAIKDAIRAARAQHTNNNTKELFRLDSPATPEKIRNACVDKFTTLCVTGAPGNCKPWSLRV
The test can be described thus: Xanthine oxidase assay (Amplex Red). It counts as biochemical. The note with it: compounds at 25 μM and 50 μM (FIG. 4). The protocol:
Bovine milk XO (grade 1, ammonium sulfate suspension; Sigma-Aldrich) was first desalted using PD-10 columns (Sephadex G-25, GE Healthcare Biosciences, Piscataway, N.J.) equilibrated in PBS. XO activity was assayed by measuring H2O2 production using the Amplex® Red assay. Reaction mixture contained: 0.02 U/mL XO, 25 mM Hepes, pH 7.4, containing 0.12 M NaCl, 3 mM KCl, 1 mM MgCl2, 0.1 mM Amplex® Red, and 0.32 U/mL of horse radish peroxidase (HRP), reaction was initiated by addition of 1 mM hypoxanthine. Fluorescence was quantified over time using a Biotek Synergy 4 Hybrid Multi-Mode Microplate Reader.
Data are expressed as % of vehicle control.

Turning to `C=C(C)CC1NC2CC(C)(C)C1c1c(-c3cccnc3)cccc12` (racemic) [Compound 12d, (±)-(1S,4R,9S)-3,3-Dimethyl-9-(2-methylallyl)-5-(pyridin-3-yl)-1,2,3,4-tetrahydro-1,4-(epimino-methano)naphthalene], the “Nox2 inhibitory activity” value in test [1] (Table 2) is “inactive”. In addition, the 50% inhibitory concentration (IC50) in test [1] (whole COS-Nox2 cells stimulated with 5 μM PMA, Amplex Red) is > 100 µM; in test [2], > 100 µM.

On to `c1ccc2c(c1)[I+]c1ccccc1-2` [DPI, reference compound], for which, in test [3], the “Effect on ROS production by xanthine oxidase” value is “complete inhibition”.

As a reminder, the IC50 is the point on the concentration scale where inhibition reaches its midpoint.
